Like-named read-outs stand apart in the source and are kept apart here.
Columns and labels:
H4IIe (AhR CALUX) = conditions: cytotoxicity; for IC10, linear transformed / IC10, linear / logIC10: Bioassay AhR, dosing range all; for IC10, linear: linear model fit; for logIC10: log-logistic model fit; for IC10, H4IIe, AhR: H4IIe (AhR assay cells)
Procedure: (§1) Cell culture conditions and bioassay protocols including response detection are provided in Text S2.1–2.4 and Table S3. − Cell viability was determined from cell confluency using an IncuCyte S3 Live-Cell Analysis System (Sartorius AG, Essen, Germany) before and after exposure, except for SH-SY5Y cells (live–dead staining with Nuclear Green LcS1 and propidium iodide, Abcam, UK). For metabolic activation experiments, cell viability was assessed using the ToxBLAzer DualScreen Kit (Thermo Fisher Scientific) to capture the remaining toxicity in ERα-UAS-bla GripTite after treatment with the aCYP catalyst (details in Text S2.4).
(§2) For ARE, the concentration that triggered an induction ratio of 1.5 (ECIR1.5) was used as the benchmark value, as detailed in Text S2.5. IC10 values also served as a threshold for data analysis in all assays; only concentrations below IC10 were considered when deriving EC10 or ECIR1.5.
(§3) We measured the cytotoxicity of BPA and its alternatives in HEK293H (PPARγ), HEK293T (ERα), H4IIe (AhR CALUX), MCF7 (ARE/MMP), and differentiated SH-SY5Y cells (Table S6). […]
(§4) S2.2: Cell Seeding and Incubation. For all bioassays, cell suspensions in the respective assay medium were dispensed into each well of 384-well plates using a MultiFlo Dispenser (Biotek, (now Agilent), Winooski, VT, U.S.). After seeding, the plates were incubated at 37° C and 5% CO₂ for […]. The final cell densities and plate types were as follows: Black poly-D-lysine […]
(§5) 6500 cells/well, ERα: 5000 cells/well. White 384-well plates with a clear bottom (Product No.
(§6) NYC, U.S.) for AhR: 3250 cells/well. Black Collagen I coated plates were used (Product No.
(§7) S2.3: Chemical Dosing and Assay Analysis Procedures. The dosing procedure and high-throughput assay workflow have been described in detail before. 9 The dosing concentrations […]
(§8) Stock solutions were then either added directly to the respective cell culture medium or evaporated under nitrogen, followed by replenishment with fresh medium. The final solvent content in each well was kept below 1% for methanol, 0% for acetonitrile.
(§9) Dosing plates were prepared as 11 -step serial dilutions using a Hamilton Microlab Star robotic system (Hamilton, Bonaduz, Switzerland), and chemicals were dosed in duplicates by transferring 10 μL twice from the dosing plates to the cell plates . After quantifying cell confluency as described in S2. 4., the exposed cells were incubated at 37° C and 5% CO₂ for an additional 24 h. All chemicals were tested in all assays with at least three independent […]
(§10) S2.4: Cell Viability Measurement s and bioanalytical protocols . The confluency as a measure of cell viability was determined with an IncuCyte S3 Live -Cell Analysis System (Sartorius AG, Essen, Germany). With this method the confluency of cells in a microscopy image are normalized to control wells without cells and compared before and after 24 hours of exposure.
(§11) This method has been described previously 13. […]

HEK293H (PPARγ) = conditions: for IC10, linear transformed / IC10, linear / logIC10: PPARγ bioassay cytotoxicity, dosing range all; for IC10, linear: linear model; for logIC10: log-logistic model; for IC10, HEK293, PPARγ: cytotoxicity, HEK293 (PPARγ assay cells)
Procedure: as §1, §2, §3, §4, §5, §6, §7, §8, §9, §10, §11

HEK293T (ERα) = conditions: cytotoxicity; for IC10, linear transformed / IC10, linear / logIC10: Bioassay ERα, dosing range all; for IC10, linear: linear model fit; for logIC10: log-logistic model fit; for IC10, HEK293, ERα: HEK293 (ERα assay cells)
Procedure: as §1, §2, §3, §4, §5, §6, §7, §8, §9, §10, §11

MCF7 (ARE/MMP) = conditions: for IC10, linear transformed / IC10, linear / logIC10: dosing range all; for IC10, MCF7, ARE: MCF7, ARE readout; for IC10, MCF7, MMP: MCF7, MMP readout
Procedure: as §1, §2, §3, §4, §5, §6, §7, §8, §9, §10, §11

SH-SY5Y cells = conditions: for IC10, linear: linear model; for logIC10: log-logistic model; for IC10, SH-S5Y5, NOI: cytotoxicity, NOI assay cells
Procedure: as §1, with “S2.4). […]” for “S2.4).”
as §3
medium, supplemented with 2% B-27 Supplement and 2 mM GlutaMAX Supplement. SH - SY5Y cells were differentiated with 10 µM all-trans retinoic acid prior to the assay.
S2.2: Cell Seeding and Incubation. For all bioassays, cell suspensions in the respective assay medium were dispensed into each well of 384-well plates using a MultiFlo Dispenser (Biotek, (now Agilent), Winooski, VT, U.S.). After seeding, the plates were incubated at 37° C and 5% […]
as §6, §7, §8, §9, §10
This method has been described previously 13. Cell viability of SH-SY5Y cells was measured […]
propidium iodide (PI, Abcam, Cambridge, U.K.).14 Nuclear Green LCS1 is a membrane-permeable dye that stains the nuclei of all cells, whereas PI only enters cells with compromised membrane integrity (non-viable cells). After staining, live cells show green nuclei without red fluorescence, while dead cells display both green and red nuclear fluorescence due to PI […]
intercalation. […]

[1] = Bioassay ARE, cytotoxicity, linear model fit
[2] = Bioassay ARE, cytotoxicity, log-logistic model fit
[3] = MMP bioassay cytotoxicity, linear model
[4] = MMP bioassay cytotoxicity, log-logistic model
[5] = NOI bioassay cytotoxicity, dosing range all

Structure (SMILES) | IC10, linear transformed (H4IIe (AhR CALUX)) | IC10, linear (H4IIe (AhR CALUX)) | logIC10 (H4IIe (AhR CALUX)) | IC10, H4IIe, AhR (H4IIe (AhR CALUX)) [µM] | IC10, linear transformed (HEK293H (PPARγ)) | IC10, linear (HEK293H (PPARγ)) | logIC10 (HEK293H (PPARγ)) | IC10, HEK293, PPARγ (HEK293H (PPARγ)) [µM] | IC10, linear transformed (HEK293T (ERα)) | IC10, linear (HEK293T (ERα)) | logIC10 (HEK293T (ERα)) | IC10, HEK293, ERα (HEK293T (ERα)) [µM] | IC10, linear transformed (MCF7 (ARE/MMP); Bioassay ARE, cytotoxicity) | IC10, linear (MCF7 (ARE/MMP); [1]) | logIC10 (MCF7 (ARE/MMP); [2]) | IC10, linear transformed (MCF7 (ARE/MMP); MMP bioassay cytotoxicity) | IC10, linear (MCF7 (ARE/MMP); [3]) | logIC10 (MCF7 (ARE/MMP); [4]) | IC10, linear (SH-SY5Y cells; [5]) | logIC10 (SH-SY5Y cells; [5]) | further results
Oc1ccc(Sc2ccc(O)cc2)cc1 [BPT, 4,4'-Thiodiphenol] | 8.07E-05 | 5.00E-05 | -4.09 | 50 | 4.47E-06 | 2.13E-05 | -4.76 | 17.4 | 4.06E-05 | 2.43E-05 | -4.53 | 24.3 | 1.75E-04 | 3.07E-04 | -3.76 | 2.05E-04 | 2.97E-04 | -3.69 | 1.40E-04 | no cytotoxicity | IC10, MCF7, ARE (MCF7 (ARE/MMP); cytotoxicity): 175 µM; IC10, MCF7, MMP (MCF7 (ARE/MMP); cytotoxicity): 205 µM; IC10, SH-S5Y5, NOI (SH-SY5Y cells): 140 µM
Oc1ccc(C2(c3ccc(O)cc3)CCCCC2)cc1 [BPZ, 1,1'-Bis(4-hydroxyphenyl)cyclohexane] | 8.38E-05 | 1.06E-04 | -4.08 | 83.8 | 4.22E-06 |  | -5.04 | 9.12 | 8.13E-06 | 6.53E-06 | -5.18 | 6.64 | 7.27E-05 | 3.45E-05 | -4.14 | 3.28E-05 | 3.30E-05 | -4.48 | 7.12E-05 | -4.10 | IC10, MCF7, ARE (MCF7 (ARE/MMP); cytotoxicity): 72.7 µM; IC10, MCF7, MMP (MCF7 (ARE/MMP); cytotoxicity): 32.8 µM; IC10, linear transformed (SH-SY5Y cells; [5]): 7.89E-05; IC10, SH-S5Y5, NOI (SH-SY5Y cells): 78.9 µM
Cc1ccc(S(=O)(=O)NC(=O)Nc2ccc(Cc3ccc(NC(=O)NS(=O)(=O)c4ccc(C)cc4)cc3)cc2)cc1 [BTUM, 4,4'-Bis(p-tolylsulfonylureido)diphenylmethane] |  | no cytotoxicity | no cytotoxicity |  |  | 4.34E-05 | -4.51 | 31 |  | 3.66E-05 | no cytotoxicity |  |  | no cytotoxicity | no cytotoxicity |  | no cytotoxicity | no cytotoxicity | no cytotoxicity | no cytotoxicity | Toxic ratio (TR) TRPPARγ (HEK293H (PPARγ); against baseline cytotoxicity): 0.91
